From patent US20250361543A1, “Instrumentation for Rapid Antimicrobial Susceptibility Testing from Bodily Fluids and Cultures” (Georgia Tech Research Corporation, priority 2022, published 2025)
≈ marks a conversion by molar mass, not a printed value. Read-outs that look alike come from different tables or passages of the source.

System: Escherichia coli
Experiment: Plate reader antimicrobial susceptibility test (MIC) directly from positive blood culture
Assay type: cell-based
Settings: for MIC: Escherichia coli
Method: The tests can also provide a low labor cost. Disclosed in this example are systems and methods for performing ASTs directly from positive blood cultures. De-identified hospital patient positive blood cultures were received within 8 hours of being flagged positive. ASTs were performed using various antimicrobial agents, namely seven antibiotics (ceftazidime, meropenem, tobramycin, levofloxacin, cefepime, gentamicin, and amikacin). The positive blood cultures were diluted 250-fold in cation-adjusted Mueller-Hinton Broth (CAMHB) media and 100 μL of this diluted sample was dispensed into each well of a 96-well microtiter plate, already containing 100 μL of varying concentration of one antibiotic. […] The sample-filled 96-well plate was sealed by sterile plastic film and incubated in a microtiter plate reader at 37° C. A temperature gradient of 0.5° C. was selected to prevent condensation on cover film. Each well was scanned every one hour from 400 to 895 nm with a 5 nm step starting from the time of incubation (0 hours) resulting in a total of nineteen spectra per well.
Relating to data analysis-spectra (400 to 895 nm) vs time were acquired from each well. Spectral principal components (PCs) were computed for all wells at each time point and those explaining at least 90% of the variance were calculated. […] Determining the lowest concentration for each antibiotic that inhibited growth based on these spectral overlaps determined the MIC for each antibiotic used.
The antibiotics concentrations are as in the plate layout and growth is measures as absorption at each excitation wavelength compares with the positive controls. Dark red indicates growth while bright red indicates no growth.

[1] = 6 hours incubation at 37° C, positive blood culture diluted 500-fold in CAMHB, assay of FIG. 4, read-out: MIC (6 hours)
[2] = 8 hours incubation at 37° C, positive blood culture diluted 500-fold in CAMHB, assay of FIG. 4, read-out: MIC (8 hours)
[3] = 10 hours incubation at 37° C, positive blood culture diluted 500-fold in CAMHB, assay of FIG. 4, read-out: MIC (10 hours)
[4] = 18 hours incubation at 37° C, positive blood culture diluted 500-fold in CAMHB, assay of FIG. 4, read-out: MIC (18 hours)

Row | Compound | MIC [1] | MIC [2] | MIC [3] | MIC [4] | other results
1 | NCC[C@H](O)C(=O)N[C@@H]1C[C@H](N)[C@@H](O[C@H]2O[C@H](CN)[C@@H](O)[C@H](O)[C@H]2O)[C@H](O)[C@H]1O[C@H]1O[C@H](CO)[C@@H](O)[C@H](N)[C@H]1O [Amikacin, amikacin] | 2 µg/mL (≈ 3.42 µM) | 2 µg/mL (≈ 3.42 µM) | 2 µg/mL (≈ 3.42 µM) | 2 µg/mL (≈ 3.42 µM) | –
2 | NC[C@H]1O[C@H](O[C@H]2[C@H](O)[C@@H](O[C@H]3O[C@H](CO)[C@@H](O)[C@H](N)[C@H]3O)[C@H](N)C[C@@H]2N)[C@H](N)C[C@@H]1O [Tobramycin, tobramycin] | 1 µg/mL (≈ 2.14 µM) | 1 µg/mL (≈ 2.14 µM) | 1 µg/mL (≈ 2.14 µM) | 1 µg/mL (≈ 2.14 µM) | –
3 | C[C@@H](O)[C@H]1C(=O)N2C(C(=O)O)=C(S[C@@H]3CN[C@H](C(=O)N(C)C)C3)[C@H](C)[C@H]12 [Meropenem, meropenem] | ≤ 0.0312 µg/mL | ≤ 0.0312 µg/mL | ≤ 0.0312 µg/mL | ≤ 0.0312 µg/mL | –
4 | C[C@H]1COc2c(N3CCN(C)CC3)c(F)cc3c(=O)c(C(=O)O)cn1c23 [Levofloxacin, levofloxacin] | ≤ 0.0312 µg/mL | ≤ 0.0312 µg/mL | ≤ 0.0312 µg/mL | ≤ 0.0312 µg/mL | –
5 | CO/N=C(\C(=O)N[C@@H]1C(=O)N2C(C(=O)[O-])=C(C[N+]3(C)CCCC3)CS[C@H]12)c1csc(N)n1 [Cefepime, cefepime] | – | – | – | – | MIC (6 h, read-out: MIC (6 hours)): ≤ 0.0312 µg/mL; MIC (8 h, read-out: MIC (8 hours)): ≤ 0.0312 µg/mL; MIC (10 h, read-out: MIC (10 hours)): ≤ 0.0312 µg/mL; MIC (18 h, read-out: MIC (18 hours)): ≤ 0.0312 µg/mL
6 | gentamicin | – | – | – | – | MIC (6 hours) (6 hours incubation at 37° C, positive blood culture diluted 500-fold in CAMHB, assay of FIG. 4): 1 µg/mL; MIC (8 hours) (8 hours incubation at 37° C, positive blood culture diluted 500-fold in CAMHB, assay of FIG. 4): 1 µg/mL; MIC (10 hours) (10 hours incubation at 37° C, positive blood culture diluted 500-fold in CAMHB, assay of FIG. 4): 1 µg/mL; MIC (18 hours) (18 hours incubation at 37° C, positive blood culture diluted 500-fold in CAMHB, assay of FIG. 4): 1 µg/mL
7 | CC(C)(O/N=C(\C(=O)N[C@@H]1C(=O)N2C(C(=O)[O-])=C(C[n+]3ccccc3)CS[C@H]12)c1csc(N)n1)C(=O)O [Ceftazidime, ceftazidime] | 0.0625 µg/mL (≈ 0.114 µM) | 0.0625 µg/mL (≈ 0.114 µM) | 0.0625 µg/mL (≈ 0.114 µM) | 0.0625 µg/mL (≈ 0.114 µM) | –
